Data on two compounds can be found in patent US6689803B2, “Compositions and methods for treating surgical adhesions” (Angiotech Pharmaceuticals, Inc., priority 1996, dated 2004).

Like-named read-outs stand apart in the source and are kept apart here.

In one assay the test system is LNCaP cells. The assay is described as follows: LNCaP cell growth (crystal violet). The format is cell-based, human. Conditions: inferred from toxicity at 0.001 nM. The procedure:
LNCaP cells were seeded at concentrations of 2×10^3 and 1×10^3 cells/well respectively in 96 well plates. […] After incubation, the cells were fixed with 1% glutaraldehyde solution, and stained for 5 minutes with 0.5% crystal violet. The dye was successively eluted with 100 μl of buffer solution and the absorbance was read on a Titertek Multiskan microplate reader using a wavelength of 492 nm Absorbance. Cell growth was expressed as a percentage relative to control wells in the absence of the compound (set at 100%).

The test system of assay [1] is restenosis / intimal hyperplasia. The assay is described as follows: Rat carotid artery balloon injury model of restenosis, perivascular treatment. It counts as in vivo. To be noted: 10% camptothecin-loaded EVA film, 14 days, two animals. How it is done: WISTAR rats weighing 250 to 300 g were anesthetized by the intramuscular injection of Innovar (0.33 ml/kg). Once sedated they were then placed under Halothane anesthesia After general anesthesia was established, fur over the neck region was shaved, the skin clamped and swabbed with betadine. A vertical incision was made over the left carotid artery and the external carotid artery exposed. Two ligatures were placed around the external carotid artery and a transverse arteriotomy was made. […] The endothelium was denuded by passing the inflated balloon up and down the carotid artery three times. The catheter was then removed and the ligature tied off on the left external carotid artery. […] The wound was then closed.

For assay [2], the system named is chick chorioallantoic membrane (CAM) vasculature. Conditions: PCL paste (3 mg).
In another assay the test system is synoviocytes. Kind of assay: Proliferation assay (MTT). It counts as cell-based. To be noted: 24-hour exposure. The procedure: On day one, 5-10×10^4 synoviocytes were plated per well (96-well plate). Column #1 was kept free of cells (blank). On day 2, the plate was flicked to discard the medium and 200 μl of medium containing various concentrations of drug was added. […] There was no drug added to columns #1 and #2 (blank and untreated control, respectively). The medium containing the drug was discarded and 200 μl of fresh complete medium was added. The cells were then left to grow for an additional 3 to 4 days. On day five, 20 μl of dimethylthiazol diphenyltetrazolium bromide salt (MTT) (5 mg/ml PBS) was added and allowed to incubate for 4 hours at 37° C. The medium was decanted and 200 μl of DMSO was added.
The data were expressed as the % of survival which was obtained by dividing the number of cells remaining after treatment by the number of cells in the untreated control column #2 (the number of cells was obtained from a standard done prior to the assay).

The next assay concerns NF-κB. The assay is described as follows: NF-κB activity (cell-based) reporter assay in NIH-3T3. Set-up: species or system murine. To be noted: 6-hour and 24-hour treatments. The procedure:
IL-1 and TNF were both identified as being proinflammatory cytokines that activate the transcription of genes driven by a transcription factor named NF-κB also involved in inflammatory processes. The inflammatory effect of IL-1 and TNF can therefore be indirectly assessed by means of a reporter gene assay (NF-κB) responding to IL-1 and TNF stimulation.
On day one, 5×10^4 NIH-3T3 (murine fibroblast), stably transfected with a NF-κB reporter construct (Luciferase, Promega Corp.), were plated per well (24-well plate). Once confluent (on day 3-4), cells were starved by replacing the complete medium with 1 ml of serum-free medium. Following a 24-hour starvation, cells were treated with various concentrations of anti-microtubule agents 6 hours prior to the addition of IL-1 (20 ng/ml) and TNF (20 ng/ml). Cells were exposed to IL-1 and TNF for 1 hour and 16 hours and NF-κB activity measured 24 hours later. On day five, the medium was discarded and the cells were rinsed once with PBS. Cells were then extracted for 15 minutes with 250 μl of lysis buffer (Promega Corp., Wisconsin). NF-κB transcriptional activity was assessed by adding 25 μl of luciferase substrate to a tube containing 2.5 μl of cell extract. The tube was immediately inserted in a luminometer (Turner Designs) and light emission measured for 10 seconds. The luciferase data were then normalized for protein concentration.

A further assay relates to aggrecan mRNA. Kind of assay: Expression of proteoglycan (aggrecan) in chondrocytes. It counts as cell-based, calf. To be noted: all concentrations evaluated (10^−7 M to 10^−4 M). The procedure:
Primary chondrocyte cultures were freshly isolated from calf cartilage. The cells were plated at 2.5×10^6 per ml in 100×20 mm culture dishes and incubated in Ham's F12 medium containing 5% FBS overnight at 37° C. The cells were starved in serum-free medium overnight and then treated with anti-microtubule agents at various concentrations (10^−7 M, 10^−6 M, 10^−5 M and 10^−4 M) for 6 hours. […] Total RNA was isolated by the acidified guanidine isothiocyanate method and subjected to electrophoresis on a denatured gel. […] The exposed films were scanned and quantitatively analyzed with ImageQuant.

The next assay concerns collagenase (MMP-1) mRNA. Kind of assay: IL-1 induced collagenase mRNA expression in chondrocytes (Northern blot). The format is cell-based, calf. Conditions: pre-incubation 6 hours, IL-1 20 ng/ml 18 hours. The procedure:
Total RNA was isolated, and the MMP-1 mRNA levels were determined by Northern blot analysis. The blots were subsequently stripped and reprobed with ^32P-radiolabeled rat GAPDH cDNA, which was used as a housekeeping gene. The results shown are representative of four independent experiments. Quantitation of collagenase-1 and stromelysin-expression mRNA levels. The MMP-1 and MMP-3 expression levels were normalized with GAPDH.
Primary chondrocyte cultures were freshly isolated from calf cartilage. The cells were plated at 2.5×10^6 per ml in 100×20 mm culture dishes and incubated in Ham's F12 medium containing 5% FBS overnight at 37° C. […] IL-1 (20 ng/ml) was then added to each plate and the plates incubated for an additional 18 hours. Total RNA was isolated by the acidified guanidine isothiocyanate method and subjected to electrophoresis on a denatured gel. Denatured RNA samples (15 μg) were analyzed by gel electrophoresis in a 1% denatured gel, transferred to a nylon membrane and hydridized with the ^32P-labeled collagenase cDNA probe. ^32P-labeled glyceraldehyde phosphate […] (GAPDH) cDNA as an internal standard to ensure roughly equal loading. The exposed films were scanned and quantitatively analyzed with ImageQuant.

Take `CC[C@@]1(O)C(=O)OCc2c1cc1n(c2=O)Cc2cc3ccccc3nc2-1` [camptothecin]: in the assay on LNCaP cells, the EC50 result was “femtomolar concentration range”. Also, in assay [1], the intimal hyperplasia result is “completely inhibited intimal hyperplasia”. Moreover, the Inhibition/n result in assay [2] (0.25%) was “¾”; in assay [2] (1%), “⅔”; in assay [2] (5%) it was “⅘”.

Turning to `Nc1ncnc2c1ccn2[C@@H]1O[C@H](CO)[C@@H](O)[C@H]1O` [tubercidin, 7-deazaadenosine], the IC50 with synoviocytes was around 45 nM. Moreover, the “inhibitory effect on IL-1- and TNF-induced NF-κB activity” value in the assay with NF-κB is “around 10 μM”. In addition, the expression of aggrecan entry with aggrecan mRNA is “did not affect the expression of aggrecan”. Further, the Inhibition/n result was “⅓” in assay [2] (1%) and “⅔” in assay [2] (5%). Moreover, the “prevented IL-1-induced collagenase expression at concentrations as low as” value in the assay on collagenase (MMP-1) mRNA was 100 nM.
